Literature values as cited in US7282225B1, “Composition and methods for improving retinal health” (Occular Technologies, Inc., priority 2006, dated 2007).
Where two headings read alike, the source gives them in different places.

Assays:
[1] = system: animals; conditions: animal study, alpha-lipoic acid supplements
[2] = system: animals
[3] = system: rats
[4] = system: AMD; conditions: diet of 6 mg per day
[5] = system: macular degeneration; conditions: dietary or supplement intake, case-control study
[6] = healthy, young men
[7] = system: people; conditions: more than 750 mg/day
[8] = system: asthma; conditions: 1-2 g/day
[9] = system: bladder cancer; conditions: 500 mg daily for 10 years or more
[10] = system: colon cancer; conditions: 3 g/day
[11] = system: colon cancer; conditions: intake of more than 157 mg/day
[12] = system: heart disease; conditions: more than 700 mg/day versus 60 mg/day or less
[13] = system: monocytes; conditions: 2 g/day
[14] = system: patients with atherosclerosis; conditions: 2 g/day
[15] = system: restenosis after angioplasty; conditions: 500 mg/day
[16] = system: cataracts and glaucoma
[17] = system: age-related macular degeneration (AMD); conditions: participants at high risk (intermediate AMD, or advanced AMD in one eye only), daily oral tablets
[18] = system: AMD

O=C(O)CCCCC1CCSS1 (stereo not drawn) [alpha-lipoic acid, Alpha-Lipoic Acid]
side effects associated with amikacin and gentamicin [1]: reduced side effects, particularly toxicity to the ear | toxic side effects associated with cisplatin and cyclophosphamide [2]: protected against toxic side effects | cholesterol levels [3]: improved cholesterol levels | thyroid hormone function [3]: altered thyroid hormone function

CC1=C[C@H](O)CC(C)(C)[C@H]1/C=C/C(C)=C/C=C/C(C)=C/C=C/C=C(C)/C=C/C=C(C)/C=C/C1=C(C)C[C@@H](O)CC1(C)C [lutein, Lutein]
lower prevalence of AMD [4]: 43% | association of intake with risk of macular degeneration [5]: most strongly associated with a reduced risk

CC1=C(/C=C/C(C)=C/C=C/C(C)=C/CO)C(C)(C)CCC1 [retinol, Retinol]
association of intake with risk of macular degeneration [5]: no effect

O=C1O[C@H]([C@@H](O)CO)C(O)=C1O [vitamin C, ascorbic acid]
minimum intake required to completely saturate the blood plasma with vitamin C [6]: ≥ 1000 mg/day | reduction of risk of dying prematurely [7]: 60% | asthma symptoms [8]: reduce asthma symptoms significantly | reduction of risk of developing bladder cancer [9]: 60% | polyp growth in colon cancer [10]: effectively prevent further polyp growth | reduction of risk of developing colon cancer [11]: 50% | lower risk of dying from heart disease [12]: 62% | adhesion of monocytes to the lining of blood vessels [13]: reduce adhesion of monocytes | vasomotor dysfunction [14]: effectively reverses | restenosis (reclosing of opened arteries) after angioplasty [15]: significantly reduced | open angle glaucoma ([16]; large doses): can be reversed | risk of cataracts and glaucoma ([16]; supplementation): significantly lower | association of intake with risk of macular degeneration [5]: little effect

Cc1c(C)c2c(c(C)c1O)CC[C@@](C)(CCC[C@H](C)CCC[C@H](C)CCCC(C)C)O2 [vitamin E, alpha-tocopherol]
association of intake with risk of macular degeneration [5]: negative effects

CC1=C(/C=C/C(C)=C/C=C/C(C)=C/C=C/C=C(C)/C=C/C=C(C)/C=C/C2=C(C)C[C@@H](O)CC2(C)C)C(C)(C)C[C@H](O)C1 [zeaxanthin, Zeaxanthin]
association of intake with risk of macular degeneration [5]: most strongly associated with a reduced risk

[O-2].[Zn+2] [zinc alone]
Reduced risk of developing advanced AMD [17]: about 21% | Reduced risk of vision loss [17]: about 11% | Reduced risk of developing advanced AMD ([17]; listed as Zinc Alone): AMD by about 21%. | Reduced risk of vision loss ([17]; listed as Zinc Alone): loss by about 11%.

[Zn] [zinc]
accumulation of drusen ([18]; zinc group): less accumulation of drusen | treatment of AMD ([18]; zinc supplements): effective
